Experimental data reported in US11071730B2, “Substituted 6-azabenzimidazole compounds” (Gilead Sciences, Inc., priority 2018, dated 2021).

Each compound was assayed against human HPK1 (MAP4K1) (Homo sapiens (Human), UniProt Q92918) (assay: HPK1 IC50 Assay (TR-FRET biochemical kinase assay, STK S1 peptide substrate)). Conditions: recombinant human HPK1 kinase domain 0.15 nM, 10 μM ATP, 1 μM STK S1 peptide; geometric mean.
Description: The enzymatic activity of human HPK1 (MAP4K1) was monitored in a biochemical assay in the presence or absence of compounds and using a synthetic peptide substrate. An increase in phosphorylation of the peptide by HPK1 was indicative of its kinase activity.
Recombinant HPK1 kinase domain produced via baculovirus infection of insect cells was obtained from Proteros (Proteros Biostructures #PR-0322) and was pre-activated in the presence of 2 mM ATP (Sigma-Aldrich, cat #GE27-2056-01) and 2 mM magnesium chloride for 16 hours at 4° C. The protein reaction mixture was then loaded to a desalting column (Thermo Fisher Scientific, Cat #89889) to remove excess ATP. HPK1 was eluted with buffer containing 20 mM Tris (2-Amino-2-(hydroxymethyl)propane-1,3-diol) pH 8.0, 150 mM NaCl, 2 mM dithiothreitol and 5% glycerol, and was frozen at −80° C. for later use.
Ten nanoliters of test compounds dissolved in DMSO at various concentrations were dispensed into a 384-well ProxiPlate (PerkinElmer #6008289). Five microliters of a solution of recombinant HPK1 diluted in HPK1 kinase assay buffer (50 mM BES [N,N-Bis(2-hydroxyethyl)-2-aminoethanesulfonic acid], pH 7.0; 10 mM magnesium chloride; 0.01% Triton X-100; 1 mM dithiothreitol; 0.01% bovine serum albumin; 0.1 mM sodium orthovanadate) was added to the compound-containing plate and was incubated for 15 minutes at 25° C. Five microliters of a mixture of ATP (Sigma-Aldrich #A6559) and peptide substrate STK S1 (Cisbio #61ST1BLC) diluted in HPK1 kinase assay buffer was then added to start the reaction. Final concentrations were 0.15 nM for HPK1, 10 μM for ATP, and 1 μM for the STK S1 peptide substrate. The reaction mixture was incubated at 25° C. for 3 hours and was stopped with the addition of 10 μl of an EDTA (Ethylenediaminetetraacetic acid)-containing detection buffer (Cisbio #62SDBRDF) supplemented with Europium cryptate-labeled anti-phospho-serine/threonine antibodies (Cisbio #62ST1PEJ) and XL665-labeled streptavidin (Cisbio #610SAXLG). The mixture was incubated for 16 hours at room temperature and peptide phosphorylation was measured by time-resolved fluorescence energy transfer (665 nm/620 nm) on an Envision plate reader (PerkinElmer).
Data in Table 1 were normalized based on positive (staurosporine) and negative (DMSO) controls. Least squares curve fittings were performed using a four-parameter variable slope nonlinear regression model. IC50 is defined as the concentration of compound required to inhibit 50% of maximum phosphorylation. IC50 values from multiple experiments were averaged by geometric mean and the standard deviation was calculated.

Sequence of human HPK1 (MAP4K1) (Q92918 17-274): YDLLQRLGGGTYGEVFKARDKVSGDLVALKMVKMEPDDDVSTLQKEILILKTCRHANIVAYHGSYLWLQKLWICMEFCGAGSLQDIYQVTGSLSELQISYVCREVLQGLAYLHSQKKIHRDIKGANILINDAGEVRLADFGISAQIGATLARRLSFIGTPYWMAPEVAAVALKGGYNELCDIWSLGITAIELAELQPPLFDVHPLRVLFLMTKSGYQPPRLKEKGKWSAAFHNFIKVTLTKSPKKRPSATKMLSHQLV

Row | Compound | IC50
1 | CC(C)n1cnc2cc(-c3ccc4c(c3)N([C@H]3C[C@@H](N5CCCC6(CC6)C5)C3)C(=O)C43CCN(C(=O)C(C)(C)CO)CC3)nc(Nc3ccncc3F)c21 [Example 122] | 0.2 nM
2 | CC(C)n1cnc2cc(-c3ccc4c(c3)N([C@H]3C[C@@H](N5CC6CCC(C6)C5)C3)C(=O)C43CCN(C(=O)C4COC4)CC3)nc(Nc3ccncc3F)c21 [Example 124] | 0.07 nM
3 | CC(C)n1cnc2cc(-c3ccc4c(c3)N([C@H]3C[C@@H](N5C6COCC5C6)C3)C(=O)C4(C)C)nc(Nc3ccncc3F)c21 [Example 190] | 2.1 nM
4 | CC(C)n1cnc2cc(-c3ccc4c(c3)N([C@H]3C[C@@H](N5C[C@H]6CC[C@H]6C5)C3)C(=O)C43CCN(C(=O)C(C)(C)CO)CC3)nc(Nc3ccncc3F)c21 [Example 112] | 0.08 nM
5 | CC(C)n1cnc2cc(-c3ccc4c(c3)N([C@H]3C[C@@H](N5CCC(C)(C)C5)C3)C(=O)C43CCN(C(=O)c4ccon4)CC3)nc(Nc3ccncc3F)c21 [Example 155] | 0.3 nM
6 | CC(C)n1cnc2cc(-c3ccc4c(c3)N([C@H]3C[C@@H](N5CCCCC5)C3)C(=O)C43CCN(C(=O)[C@@H]4CCC[C@@H]4O)CC3)nc(Nc3ccncc3F)c21 [Example 109] | 0.3 nM
7 | CC(C)n1cnc2cc(-c3ccc4c(c3)N([C@H]3C[C@@H](N5CCC(C)(C)C5)C3)C(=O)C43CCN(C(=O)C(C)(C)CO)CC3)nc(Nc3ccc(F)nc3F)c21 [Example 164] | 0.08 nM
8 | CC(C)n1cnc2cc(-c3ccc4c(c3)N([C@H]3C[C@@H](N5CCC(C)(C)C5)C3)C(=O)C43CCN(C(=O)c4nccs4)CC3)nc(Nc3ccncc3F)c21 [Example 162] | 0.1 nM
9 | CC(C)n1cnc2cc(-c3ccc4c(c3)N([C@H]3C[C@@H](N5C[C@H]6CC[C@H]6C5)C3)C(=O)C43CCN(C(=O)[C@@H]4CCCO4)CC3)nc(Nc3ccncc3F)c21 [Example 111] | 0.08 nM

Next, values leading:

Row | IC50 | Compound
10 | 1 nM | CC(C)n1cnc2cc(-c3ccc4c(c3)N([C@H]3C[C@@H](N5CCC(C)(C)C5)C3)C(=O)C43CCN(C(=O)C4(C)COC4)CC3)nc(Nc3cc(Cl)ncc3F)c21 [Example 130]
11 | 0.4 nM | CC[C@H](O)C(=O)N1CCC2(CC1)C(=O)N([C@H]1C[C@@H](N3CCCCC3)C1)c1cc(-c3cc4ncn(C(C)C)c4c(Nc4ccncc4F)n3)ccc12 [Example 115]
12 | 0.5 nM | CC(C)C(=O)N1CCC2(CC1)C(=O)N([C@H]1C[C@@H](N3CCCCC3)C1)c1cc(-c3cc4ncn(C(C)C)c4c(Nc4ccncc4F)n3)ccc12 [Example 171]
13 | 1.1 nM | CC(C)n1cnc2cc(-c3ccc4c(c3)N([C@H]3C[C@@H](N5CC[C@@H](C)C5)C3)C(=O)C4(C)C)nc(Nc3ccncc3F)c21 [Example 192]
14 | 6 nM | Cc1cnc(Nc2nc(-c3ccc4c(c3)N([C@H]3C[C@@H](N5CCCCC5)C3)C(=O)C4(C)C)cc3ncn(C(C)C)c23)cc1C(=O)NC1(CF)CC1 [Example 195]
15 | 0.2 nM | Cc1cc(Nc2nc(-c3ccc4c(c3)N([C@H]3C[C@@H](N5CCC(C)(C)C5)C3)C(=O)C43CCN(C(=O)C4CCO4)CC3)cc3ncn(C(C)C)c23)c(F)cn1 (stereo partly drawn) [Example 133]
16 | 0.3 nM | CC(C)n1cnc2cc(-c3ccc4c(c3)N([C@H]3C[C@@H](N5CCCCC5)C3)C(=O)C43CCN(C(=O)C(C)(C)C#N)CC3)nc(Nc3ccncc3F)c21 [Example 141]
17 | 0.3 nM | CC(=O)N1CCC2(CC1)C(=O)N(C1CC(N3CCCC4(CC4)C3)C1)c1cc(-c3cc4ncn(C(C)C)c4c(Nc4ccncc4F)n3)ccc12 (stereo not drawn) [Example 177, 1-((1s,3s)-3-(5-azaspiro[2.5]octan-5-yl)cyclobutyl)-1′-acetyl-6-(4-((3-fluoropyridin-4-yl)amino)-3-isopropyl-3H-imidazo[4,5-c]pyridin-6-yl)spiro[indoline-3,4′-piperidin]-2-one]
18 | 0.3 nM | CC(C)n1cnc2cc(-c3ccc4c(c3)N([C@H]3C[C@@H](N5CCCCC5)C3)C(=O)C43CCN(C(=O)C4CC4)CC3)nc(Nc3ccncc3F)c21 [Example 143]

Same assay, conditions: recombinant human HPK1 kinase domain 0.15 nM, 10 μM ATP, 1 μM STK S1 peptide; geometric mean of multiple experiments

Row | Compound | IC50
19 | CC(C)n1cnc2cc(-c3ccc4c(c3)N([C@H]3C[C@@H](N5CCC(C(F)F)C5)C3)C(=O)C43CCN(C4COC4)CC3)nc(Nc3ccncc3F)c21 (stereo partly drawn) [Example 48] | 1.5 nM
20 | CC(C)n1cnc2cc(-c3ccc4c(c3)N([C@H]3C[C@@H](N5CC[C@H](F)C5)C3)C(=O)C43CCN(C4COC4)CC3)nc(Nc3ccncc3F)c21 [Example 46] | 1.1 nM
21 | CC(C)n1cnc2cc(-c3ccc4c(c3)N([C@H]3C[C@@H](N5CCC(C)(C)C5)C3)C(=O)C43CCN(C(=O)C4(C)COC4)CC3)nc(Nc3ccncc3F)c21 [Example 77] | 0.4 nM
22 | CC(C)n1cnc2cc(-c3ccc4c(c3)N([C@H]3C[C@@H](N5C[C@@H](C)[C@@H](C)C5)C3)C(=O)C43CCN(C(=O)C(C)(C)CO)CC3)nc(Nc3ccncc3F)c21 [Example 10] | 0.05 nM
23 | CC(C)n1cnc2cc(-c3ccc4c(c3)N([C@H]3C[C@@H](N5CCC(C)(C)C5)C3)C(=O)C43CCN(C(=O)C4CCO4)CC3)nc(Nc3ccncc3F)c21 (single isomer, unassigned) [Example 78A, 1-((1s,3s)-3-(3,3-dimethylpyrrolidin-1-yl)cyclobutyl)-6-(4-((3-fluoropyridin-4-yl)amino)-3-isopropyl-3H-imidazo[4,5-c]pyridin-6-yl)-1′-(oxetane-2-carbonyl)spiro[indoline-3,4′-piperidin]-2-one] | 0.3 nM
24 | [2H]C1([2H])N([C@H]2C[C@@H](N3C(=O)C(C)(C)c4ccc(-c5cc6ncn(C(C)C)c6c(Nc6ccncc6F)n5)cc43)C2)C([2H])([2H])C([2H])([2H])C([2H])([2H])C1([2H])[2H] [Example 63] | 0.3 nM
25 | CC(C)n1cnc2cc(-c3ccc4c(c3)N([C@H]3C[C@@H](N5CCC(C)(C)C5)C3)C(=O)C43CCN(C(=O)[C@H]4CCOC4)CC3)nc(Nc3ccncc3F)c21 [Example 16] | 0.3 nM
26 | CC(C)n1cnc2cc(-c3ccc4c(c3)N([C@H]3C[C@@H](N5CCC(C)(C)C5)C3)C(=O)C43CCN(C(=O)CC4COC4)CC3)nc(Nc3ccncc3F)c21 [Example 21] | 0.4 nM
27 | CC(C)n1cnc2cc(-c3ccc4c(c3)N([C@H]3C[C@@H](N5CCC(C)(C)C5)C3)C(=O)C43CCN(C(=O)C4CCO4)CC3)nc(Nc3ccncc3F)c21 (mixture of isomers) [Example 78, 1-((1s,3s)-3-(3,3-dimethylpyrrolidin-1-yl)cyclobutyl)-6-(4-((3-fluoropyridin-4-yl)amino)-3-isopropyl-3H-imidazo[4,5-c]pyridin-6-yl)-1′-(oxetane-2-carbonyl)spiro[indoline-3,4′-piperidin]-2-one] | 0.7 nM
28 | CCn1cnc2cc(-c3ccc4c(c3)N([C@H]3C[C@@H](N5CCC(C)(C)C5)C3)C(=O)C43CCN(C4COC4)CC3)nc(Nc3ccncc3F)c21 [Example 87] | 0.7 nM
29 | CC(=O)N1CCC2(CC1)C(=O)N([C@H]1C[C@@H](N3CCC[C@@H](C)C3)C1)c1cc(-c3cc4ncn(C(C)C)c4c(Nc4ccncc4F)n3)ccc12 [Example 32] | 0.6 nM
30 | CC(C)n1cnc2cc(-c3ccc4c(c3)N([C@H]3C[C@@H](N5CCC(F)CC5)C3)C(=O)C43CCN(C4COC4)CC3)nc(Nc3ccncc3F)c21 [Example 43] | 1.1 nM
31 | CC(C)n1cnc2cc(-c3ccc4c(c3)N([C@H]3C[C@@H](N5CCC(C)(C)C5)C3)C(=O)C43CCN(C(=O)C4CCOCC4)CC3)nc(Nc3ccncc3F)c21 [Example 23] | 0.2 nM
32 | CC(C)n1cnc2cc(-c3ccc4c(c3)N([C@H]3C[C@@H](N5CCC(C)(C)C5)C3)C(=O)C43CCN(C4COC4)CC3)nc(Nc3ccnc(F)c3F)c21 [Example 93] | 0.2 nM

Continued, values first:

Row | IC50 | Compound
33 | 0.5 nM | CC(C)n1cnc2cc(-c3ccc4c(c3)N([C@H]3C[C@@H](N5CCCCC5)C3)C(=O)C43CCN(C(=O)C4(C)CC4)CC3)nc(Nc3ccncc3F)c21 [Example 27]
34 | 2.1 nM | Cc1cc(Nc2nc(-c3ccc4c(c3)N([C@H]3C[C@@H](NCC(C)(C)O)C3)C(=O)C4(C)C)cc3ncn(C(C)C)c23)c(F)cn1 [Example 53]
35 | 0.2 nM | CC(C)n1cnc2cc(-c3ccc4c(c3)N([C@H]3C[C@@H](N5CCCC(C)(C)C5)C3)C(=O)C4(C)C)nc(Nc3ccc(=O)n(C)c3)c21 [Example 81]
36 | 2.2 nM | CC(C)n1cnc2cc(-c3ccc4c(c3)N([C@H]3C[C@@H](N5CCCCC5)C3)C(=O)[C@]4(C)O)nc(Nc3ccncc3F)c21 [Example 55B, 6-(4-((3-fluoropyridin-4-yl)amino)-3-isopropyl-3H-imidazo[4,5-c]pyridin-6-yl)-3-hydroxy-3-methyl-1-((1s,3s)-3-(piperidin-1-yl)cyclobutyl)indolin-2-one]
